Values of other authors in patent US5656291A, “Controlled release preparation” (Pharmacia & Upjohn Aktiebolag, priority 1995, dated 1997).

Conditions: after oral administration

CN1CC[C@]23c4c5ccc(O)c4O[C@H]2[C@@H](O)C=C[C@H]3[C@H]1C5 [Morphine]
duration of analgesic effect: 4 to 6 h
